Test results: patent US20260356849A1, “COMPOUNDS AND METHODS FOR TREATING CANCERS” (CEDARS-SINAI MEDICAL CENTER, priority 2022, published 2026)
Entries after “also recorded” stand apart in the source; their conditions may differ.

Key:
HepG2 cells [1] = test: Annexin V-FITC/propidium iodide assay HepG2; format: cell-based; conditions: 5 μM, 24-48 hours
Experimental: (§1) FIG. 8 depicts, in accordance with various embodiments of the invention, results of an annexin V-FITC/propidium iodide binding assay performed in human and mouse hepatocytes, AML12, HEK293, HepG2, and RKO cells after treatment with 5 μM of a GIT1 inhibitor or DMSO for 24-48 hours (results are shown as mean±SE from at least 3 experiments. *p<0.05 vs. DMSO).
(§2) An annexin V-FITC/propidium iodide (PI) binding assay was performed with flow cytometry. […] Both G2/M arrest and cell death are mechanisms by which compound C3 inhibits cancer cells' growth.

M2 macrophages (CD206+) = test: Flow cytometry of macrophages in CRLM tumors; format: in vivo, mice
Excerpt: Liver tumors from CRLM model in syngeneic mice were processed for flow cytometry. […] In this subgroup, CD206+ was used to identify M2 macrophages.

RKO cells [2] = test: MTT assay in RKO cells; format: cell-based; conditions: Homo sapiens
Experimental: (§3) The inventors identified nine inhibitors and perfomed an EdU assay after treating non-malignant (HEK293, AML12) and malignant (HepG2, MzChA-1, HT-29, RKO) cells with varying concentrations of GIT1 inhibitor for 24 hours (results are mean±SE from 3 independent experiments done in duplicates, *p<0.05 vs. DMSO). An MTT assay was also performed after treating primary human and mouse hepatocytes and liver and colon cancer cells with varying concentrations of GIT1 inhibitor for 24 hours (results are mean±SE from 3 independent experiments done in duplicates, *p<0.05 vs. DMSO). […] Percoll may be used to remove dead human hepatocytes.

GIT1-GFP = GIT1-GFP (Homo sapiens, UniProt Q9Y2X7); test: MST binding to GIT1-GFP
[3] = test system: non-malignant (HEK293, AML12) cells; test: EdU/MTT growth assay in non-malignant cells; format: cell-based; conditions: 10 μM, 24 hours
Experimental: as §3

HEK293 cells = test: Annexin V-FITC/propidium iodide assay HEK293; format: cell-based; conditions: 5 μM, 24-48 hours
Experimental: as §1, §2

MEK and ERK activity [4] = test: Western blot ERK and MEK activity in MC38 cells; format: cell-based; conditions: 10 μM, 24 hours
HepG2 cells [5] = test: Cell cycle flow cytometry HepG2; format: cell-based; conditions: 1-5 μM, 24 hours
[6] = biological target: GIT1-cyclin B1 interaction (Homo sapiens, UniProt Q9Y2X7); test: Co-IP GIT1-cyclin B1 interaction in HepG2; format: cell-based; conditions: HepG2, 10 μM, 24 h
Experimental: HepG2 cells were treated with compound C3 at 10 μM for 24 h and subjected to co-IP with anti-GIT1 or anti-cyclin B1 and blotted for cyclin B1 and GIT1, ratios of cyclin B1 bound to GIT1 vs. DMSO control are shown, *p<0.05 vs. DMSO from n=3 (FIG. 38B).
In vitro translated GIT1, recombinant MAT2B, and cyclin B1 (both 0.5 μg) were used to evaluate their direct binding, as shown in the blots of FIG. 18A. Also shown, is the results of (FIG. 18B) treating HepG2 cells with a GIT1 inhibitor at 10 μM for 24 hours and subjected to co-IP with anti-GIT1 or cyclin B1 antibody and immunoblotted for cyclin BI and GIT1. In vitro translated GIT1, recombinant MAT2B, and cyclin B1 (both 0.5 μg) were used to evaluate their direct binding. The ratio of cyclin BI bound to GIT1 was compared to DMSO control.

cyclin B1/CDK1 = test: Cyclin B1/CDK1 activation; format: cell-based
Experimental: HepG2 and RKO cells were treated with 5 μM of compound C3 for 24 hours, followed by co-IP with anti-CDK1 antibody and western blots. […] The densitometric changes are from at least 3 independent experiments in mean±SE; *p<0.05 vs. DMSO. Binding of cyclin BI to CDK1 initiates conformational changes allowing CDK1 to alter its phosphorylation status and to become an active kinase.

MEK and ERK activity [7] = test: MEK and ERK activity in human hepatocytes; format: cell-based; conditions: 10 μM
Experimental: (§4) Treatment of human hepatocytes with 10 μM compound C3 had no effect on MEK or ERK activity.

RKO cells [8] = test: Annexin V-FITC/propidium iodide assay RKO; format: cell-based, human; conditions: 5 μM, 24-48 hours
Experimental: as §1, §2

MEK and ERK activity [9] = test: Western blot ERK and MEK activity in HepG2 cells; format: cell-based; conditions: 2-10 μM, 24 hours
Experimental: as §4

AML12 cells [10] = test: Clonogenic assay AML12; format: cell-based; conditions: 1-10 μM, 24 hours then drug free medium 10-20 days
Experimental: RKO, HepG2, and AML12 cells were treated with 1-10 μM compound C3 for 24 hours and maintained in drug free medium for 10-20 days.

[11] = test system: malignant (HepG2, MzChA-1, HT-29, RKO) cells; test: EdU/MTT growth assay in cancer cells; format: cell-based
Experimental: as §3

[12] = test system: CRC organoids from AKPS mice; test: EdU assay of CRC organoids; format: cell-based; conditions: "10M", 24 hours
Experimental: An EdU assay of CRC organoids from AKPS mice (APCF/Fp53F/FKRAS+SMAD4KOCDX2ERT+) was treated with […] of compound C3 for 24 hours.

[13] = test system: MEK1/2 interaction with GIT1, Raf, and ERK; test: Co-IP anti-MEK1/2 in HepG2 and RKO cells; format: cell-based; conditions: 10 μM, 24 hours
Excerpt: GIT1-MAT2B scaffold complex sequesters and activates RAS/RAF/MEK/ERK signaling.

AML12 cells [14] = test: Annexin V-FITC/propidium iodide assay AML12; format: cell-based; conditions: 5 μM, 24-48 hours
Experimental: as §1, §2

MEK and ERK activity [15] = test: Western blot ERK and MEK activity in RKO cells; format: cell-based, human; conditions: 2-10 μM, 24 hours
AML12 cells [16] = test: Cell cycle flow cytometry AML12; format: cell-based; conditions: 1-5 μM, 24 hours
HepG2 cells [17] = test: MTT assay in HepG2 cells; format: cell-based; conditions: Homo sapiens
Experimental: as §3

Sequence of GIT1-GFP (Q9Y2X7 1-770 isoform Q9Y2X7-3): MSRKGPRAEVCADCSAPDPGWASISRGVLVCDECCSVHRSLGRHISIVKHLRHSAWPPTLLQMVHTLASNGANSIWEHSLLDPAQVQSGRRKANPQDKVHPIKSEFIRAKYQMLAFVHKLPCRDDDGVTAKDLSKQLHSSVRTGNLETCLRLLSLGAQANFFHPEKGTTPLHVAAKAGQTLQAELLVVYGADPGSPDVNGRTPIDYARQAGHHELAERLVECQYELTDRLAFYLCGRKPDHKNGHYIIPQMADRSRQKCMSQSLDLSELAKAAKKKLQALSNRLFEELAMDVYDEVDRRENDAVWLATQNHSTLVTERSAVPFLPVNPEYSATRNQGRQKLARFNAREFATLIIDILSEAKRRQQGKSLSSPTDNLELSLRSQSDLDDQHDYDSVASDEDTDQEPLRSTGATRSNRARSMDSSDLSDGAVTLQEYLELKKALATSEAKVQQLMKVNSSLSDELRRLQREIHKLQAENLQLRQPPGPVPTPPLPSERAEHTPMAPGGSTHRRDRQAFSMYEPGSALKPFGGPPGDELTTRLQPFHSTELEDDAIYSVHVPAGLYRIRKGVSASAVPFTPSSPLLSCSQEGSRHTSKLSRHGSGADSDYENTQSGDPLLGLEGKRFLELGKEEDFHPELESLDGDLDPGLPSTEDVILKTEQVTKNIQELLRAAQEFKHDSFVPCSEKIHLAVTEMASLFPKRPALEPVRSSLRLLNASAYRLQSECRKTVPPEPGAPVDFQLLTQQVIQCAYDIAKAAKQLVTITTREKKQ
Sequence of GIT1-cyclin B1 interaction (Q9Y2X7 whole entry): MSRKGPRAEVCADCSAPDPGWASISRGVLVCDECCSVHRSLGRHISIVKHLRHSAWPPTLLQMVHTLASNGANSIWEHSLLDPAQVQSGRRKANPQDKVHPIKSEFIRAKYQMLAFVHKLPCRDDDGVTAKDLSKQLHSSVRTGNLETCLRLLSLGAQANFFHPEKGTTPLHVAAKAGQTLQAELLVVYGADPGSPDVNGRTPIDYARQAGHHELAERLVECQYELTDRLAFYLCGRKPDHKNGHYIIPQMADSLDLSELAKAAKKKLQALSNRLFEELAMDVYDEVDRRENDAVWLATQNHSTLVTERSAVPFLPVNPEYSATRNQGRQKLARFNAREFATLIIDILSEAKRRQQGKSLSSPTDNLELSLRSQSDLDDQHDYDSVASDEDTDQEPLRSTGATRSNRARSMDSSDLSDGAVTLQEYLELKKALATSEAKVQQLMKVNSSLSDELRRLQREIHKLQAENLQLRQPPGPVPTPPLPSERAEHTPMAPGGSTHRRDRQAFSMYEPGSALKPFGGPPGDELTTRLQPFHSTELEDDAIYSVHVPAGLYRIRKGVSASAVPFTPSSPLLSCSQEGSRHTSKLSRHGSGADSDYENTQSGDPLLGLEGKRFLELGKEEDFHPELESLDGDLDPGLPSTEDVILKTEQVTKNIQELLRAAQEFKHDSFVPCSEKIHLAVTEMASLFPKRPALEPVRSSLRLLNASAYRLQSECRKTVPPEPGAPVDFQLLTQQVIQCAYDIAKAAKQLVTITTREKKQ

CC1(C)Cc2nc3sc4c(=O)n(CC(=O)NCc5ccco5)cnc4c3cc2CO1 [Compound C3, 2-(8,8-Dimethyl-4-oxo-7,10-dihydro-8H-pyrano[3″,4″: 5′,6′]pyrido[3′,2′: 4,5]thieno[3,2-d]pyrimidin-3 (4H)-yl)-N-(2-furylmethyl) acetamide]
apoptosis, HepG2 (HepG2 cells [1]): significant apoptosis
necrosis, HepG2 (HepG2 cells [1]): significant necrosis
M2 macrophages in the tumors (M2 macrophages (CD206+); CD206+, n=6 each group): dramatically reduced M2 macrophages
M1 and CD8+ T cells in the tumors (M2 macrophages (CD206+); strong indication): raised MI and CD8+ T cells
IC50 (RKO cells [2]): ~20 µM
Kd (GIT1-GFP): 6.2 µM
binding to GIT1-GFP (GIT1-GFP): binds to GIT1-GFP
cytotoxicity in non-malignant cells [3]: not in non-malignant cells
cell death, HEK293 (HEK293 cells): does not induce cell death
ERK and MEK activities, MC38 (MEK and ERK activity [4]): lower
G2/M phase, HepG2 (HepG2 cells [5]): G2/M phase was significantly increased
percentage of cells in G1 phase, HepG2 (HepG2 cells [5]): lowered the percentage of cells in G1 phase
GIT1-cyclin B1 interaction [6]: promotes their interaction; also recorded: enhances GIT1-cyclin BI interaction
cyclin B1/CDK1 activation (cyclin B1/CDK1): activated cyclin B1/CDK1
MEK or ERK activity, human hepatocytes (MEK and ERK activity [7]): no effect
apoptosis, RKO (RKO cells [8]): significant apoptosis
ERK and MEK activities, HepG2 (MEK and ERK activity [9]): lower
clonogenic potential, AML12 (AML12 cells [10]): no effect on clonogenic potential
apoptosis in cancer cells (FIG. 33) [11]: slight increase in apoptosis
cytotoxicity in cancer cells ([11]; 10 μM, 24 hours): cytotoxic in cancer cells at 10 μM
growth inhibitory effect ([11]; 24 hours, among nine inhibitors): most potent growth inhibitory effect
CRC organoid appearance [12]: does not affect appearance
CRC organoid growth [12]: inhibits CRC organoids growth
RAF/MEK/ERK recruitment [13]: reduced RAF/MEK/ERK recruitment
cell death, AML12 (AML12 cells [14]): does not induce cell death
ERK and MEK activities, RKO (MEK and ERK activity [15]): lower
G2/M arrest, AML12 (AML12 cells [16]): did not occur
IC50 (HepG2 cells [17]): ~20 µM
